Results published in patent US20160138077A1, “MONITORING AND ASSESSING DEACETYLASE ENZYME ACTIVITY” (THE GENERAL HOSPITAL CORPORATION, priority 2013, published 2016).

How the values were obtained:
Bovine serum albumin = Bovine serum albumin (Bos taurus, UniProt P02769); test: HP-1 deacetylation and protein binding assay (gel filtration, fluorescence)
Description: Solutions containing HP-1 (20 μM) in 30 μL HDAC buffer with 5% DMSO were incubated at 37° C. for four hours in the presence or absence of HDAC3 (3.6 μM). After incubation with HDAC3, NaCNBH3 (1.4 mM) or vehicle (H2O) and BSA (6 mg/mL) or vehicle (HDAC buffer), were added to the solutions prior to an additional incubation at 37° C. for two hours (all reactions were run in triplicate). Following the second incubation, the final solutions (50 μL) were added to G-25 columns (GE Healthcare, Buckinghamshire, UK) pre-equilibrated with milliQ water. The columns were then centrifuged at 700×g for 60 seconds before addition of milliQ water (50 μL). […] 75 μL of each fraction was transferred to a well in a 96-well, black, clear-bottom plate (Corning Incorporated, Corning, N.Y.) and the fluorescence was detected using an IVIS Spectrum (Caliper, Hopkinton, Mass.). To obtain the fluorescence signals, the 465 nm excitation filter, 530 nm emission filter, and a 5 second exposure were used. For analysis, the total photon flux over the area of each well was determined.
HP-1 deacetylation and protein binding assay. […] The fractions were transferred to a well in a 96-well, black, clear-bottom plate (Corning Incorporated, Corning, N.Y.) and the fluorescence was detected using an IVIS Spectrum (Caliper, Hopkinton, Mass.). […]

[1] = Stability of the enamide in HDAC buffer at pH 2-12 (HPLC/LCMS); assay type: physicochemical; details: HDAC assay buffer, room temperature, 20 μM
Description: HDAC buffer was adjusted to pH 2, 4, 6, 7, 8, 10 or 12 with […]. Compound 9 was dissolved in HDAC buffer at each pH to obtain 200 μL of a 20 μM solution. The solutions were kept at room temperature and 10 μL aliquots were analyzed at selected time points (t=0, 5, 10, 15, 30 and 60 minutes). Experiments were carried out in duplicate and the hydrolysis was monitored by HPLC and LCMS. HPLC measurements were made using a gradient elution system composed of water and acetonitrile with 0.01% ammonium formate at a flow rate of 1 mL/min on an Agilent Eclipse XDB-C18 chromatographic column (4.6 mm×150 mm). LCMS was performed with a gradient elution system composed of water and acetonitrile with 0.1% ammonium formate at a flow rate of 0.1 mL/min using an Agilent Eclipse XDB-C8 chromatographic column (5 μm particle size, 2.1 mm×150 mm).

Bovine serum albumin, sequence (P02769 25-607): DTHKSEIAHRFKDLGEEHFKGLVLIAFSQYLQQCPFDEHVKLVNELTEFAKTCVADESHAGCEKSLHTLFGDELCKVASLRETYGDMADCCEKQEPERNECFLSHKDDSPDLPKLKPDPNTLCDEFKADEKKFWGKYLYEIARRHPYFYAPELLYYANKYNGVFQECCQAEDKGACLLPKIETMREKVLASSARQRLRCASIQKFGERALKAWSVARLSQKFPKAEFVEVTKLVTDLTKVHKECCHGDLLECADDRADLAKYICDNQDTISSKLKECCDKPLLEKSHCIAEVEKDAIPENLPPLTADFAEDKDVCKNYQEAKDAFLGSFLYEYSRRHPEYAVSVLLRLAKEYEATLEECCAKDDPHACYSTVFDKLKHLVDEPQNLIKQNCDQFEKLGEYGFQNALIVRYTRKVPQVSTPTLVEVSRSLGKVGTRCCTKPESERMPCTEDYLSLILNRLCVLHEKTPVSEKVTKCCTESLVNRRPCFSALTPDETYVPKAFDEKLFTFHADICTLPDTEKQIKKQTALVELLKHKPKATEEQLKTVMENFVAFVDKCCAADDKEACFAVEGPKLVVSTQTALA

| SMILES | increase in protein-DHP-1 binding compared to controls (Bovine serum albumin; HP-1 (20 μM) incubated with HDAC3, then BSA with NaCNBH3 (Lanes F and H)) | increase in detected protein-DHP-1 binding relative to controls (Bovine serum albumin; HP-1 (20 μM) incubated with HDAC3, then BSA, no NaCNBH3 (lanes E and G)) | conversion of the enamide to the aldehyde ([1]; pH 2, 60 min) | conversion of the enamide to the aldehyde ([1]; pH 4-12, 60 min) |
| --- | --- | --- | --- | --- |
| O=CCCCCCNC(=O)CCCCCNc1ccc([N+](=O)[O-])c2nonc12 [DHP-1] | 5 fold | 2 fold |  |  |
| CC(=O)NC=CCCCCNC(=O)c1ccccc1 [Compound 9] |  |  | full conversion | no detectable conversion |
